From paper PMC5911580, “YL143, a novel mutant selective irreversible EGFR inhibitor, overcomes EGFR^L858R, T790M‐mutant resistance in vitro and in vivo” (Cancer Medicine, 2018) come the findings set out here.

For assay [1], the target named is T1, EGFR^L858R (Homo sapiens, UniProt P00533, L858R).
T1 construct: purchased Invitrogen
Kind of assay: FRET-based Z'-Lyte kinase assay, EGFR L858R. In kind it is biochemical. The following applies: AV ± SD; 1.5 h incubation. On the procedure: (§1) The kinase activity assay was performed and optimized according to the instructions of Z’‐LYTE™ kinase assay kits from the manufacturer (PV4879, Life, America). In our experiments, 10 concentration gradients from 0.01 nmol/L to 1.0 μmol/L were used for all the compounds.

In assay [2] the target is T2, EGFR^T790M (Homo sapiens, UniProt P00533, T790M).
T2 construct: purchased Invitrogen
Kind of assay: FRET-based Z'-Lyte kinase assay, EGFR T790M. Format: biochemical. The note with it: AV ± SD; 1.5 h incubation. How it is done: as §1

Assay [3] deals with IGF1R (Homo sapiens, UniProt P08069). Nature of the assay: FRET-based Z'-Lyte kinase assay, IGF1R. Format: biochemical. The following applies: AV ± SD; 1.5 h incubation. How it is done: as §1
Chain of IGF1R (P08069 31-1367, species assumed): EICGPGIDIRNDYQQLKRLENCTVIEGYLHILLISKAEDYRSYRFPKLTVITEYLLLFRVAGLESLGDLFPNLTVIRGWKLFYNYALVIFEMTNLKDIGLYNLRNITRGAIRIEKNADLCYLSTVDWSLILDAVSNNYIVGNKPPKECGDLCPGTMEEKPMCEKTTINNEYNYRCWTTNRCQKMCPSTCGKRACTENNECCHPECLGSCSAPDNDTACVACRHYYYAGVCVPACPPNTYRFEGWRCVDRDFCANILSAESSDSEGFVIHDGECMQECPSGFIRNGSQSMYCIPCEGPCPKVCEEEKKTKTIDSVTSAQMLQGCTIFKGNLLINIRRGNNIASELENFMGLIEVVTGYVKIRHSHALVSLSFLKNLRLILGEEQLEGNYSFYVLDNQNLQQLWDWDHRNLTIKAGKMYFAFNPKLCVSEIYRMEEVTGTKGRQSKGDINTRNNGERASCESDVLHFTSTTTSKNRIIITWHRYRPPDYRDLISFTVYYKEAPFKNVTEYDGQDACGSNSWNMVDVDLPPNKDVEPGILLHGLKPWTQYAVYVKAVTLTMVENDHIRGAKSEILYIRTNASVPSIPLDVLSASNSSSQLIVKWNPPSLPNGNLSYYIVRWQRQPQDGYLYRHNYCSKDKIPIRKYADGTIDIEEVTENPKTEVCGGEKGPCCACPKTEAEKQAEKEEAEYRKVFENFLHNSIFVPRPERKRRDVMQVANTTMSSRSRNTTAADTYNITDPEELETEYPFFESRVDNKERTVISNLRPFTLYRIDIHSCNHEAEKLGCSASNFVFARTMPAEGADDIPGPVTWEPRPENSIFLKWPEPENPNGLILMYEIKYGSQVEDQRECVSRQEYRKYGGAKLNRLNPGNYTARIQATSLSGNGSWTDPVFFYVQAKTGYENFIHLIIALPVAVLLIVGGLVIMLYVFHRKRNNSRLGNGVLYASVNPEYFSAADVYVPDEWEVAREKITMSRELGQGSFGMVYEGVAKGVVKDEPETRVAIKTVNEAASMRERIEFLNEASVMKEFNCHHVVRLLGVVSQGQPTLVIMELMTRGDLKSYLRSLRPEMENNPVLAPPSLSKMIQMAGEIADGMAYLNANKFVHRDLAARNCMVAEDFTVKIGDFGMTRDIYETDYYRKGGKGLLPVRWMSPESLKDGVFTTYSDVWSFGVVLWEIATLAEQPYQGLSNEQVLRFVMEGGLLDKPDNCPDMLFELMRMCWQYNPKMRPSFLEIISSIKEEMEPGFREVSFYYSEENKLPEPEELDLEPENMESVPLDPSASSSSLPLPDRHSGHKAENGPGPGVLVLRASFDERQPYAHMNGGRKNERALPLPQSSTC
Assay [4] deals with HCC827 (EGFR^del 19) cells. Kind of assay: CCK-8 cell growth assay, HCC827. The following applies: Homo sapiens, HCC827; CCK-8, 72 h; AV ± SD; read-out: antiproliferative IC50 HCC827. Format: cell-based. How it is done: (§2) Cells were seeded into 96‐well plates at a density of 1500~3000/well in complete medium overnight. Then, cells were treated with various concentrations (0.01~1000 nmol/L) of YL143 for additional 3 days. Viable cell numbers were determined by Cell Counting Kit 8 (CCK8, CK04, Dojindo Laboratories, Japan). Each assay consisted of three replicate wells and repeated at least three times. […] Each IC50 value was expressed as mean ± SD.

The subject of assay [5] is A431 (EGFR^WT) cells. Kind of assay: CCK-8 cell growth assay, A431. Format: cell-based. The following applies: Homo sapiens, A-431; CCK-8, 72 h; read-out: antiproliferative IC50 A431. On the procedure:
as §2
(Formazan colour is commonly taken as a measure of viable cells.)

Assay [6] has as its system A549 (EGFR^WT) cells. Nature of the assay: CCK-8 cell growth assay, A549. Format: cell-based. The note with it: Homo sapiens, A549; CCK-8, 72 h; read-out: antiproliferative IC50 A549. How it is done:
as §2

The subject of assay [7] is BaF3. Nature of the assay: CCK-8 assay, BaF3 cells. In kind it is cell-based. The following applies: Mus musculus, AV±SD, read-out: anti-proliferative activity BaF3. On the procedure:
as §2
The anti-proliferative activities of the compounds were evaluated using CCK-8 assay. The data were means from at least four independent experiments.

Assay [8] addresses PDGFRB (Homo sapiens, UniProt P09619). Nature of the assay: Z'-Lyte kinase panel, PDGFRB. Format: biochemical. The note with it: 1.5 hrs incubation. On the procedure: (§3) Kinase activity assays were performed using the FRET-based Z′-Lyte assay according to the manufacturer’s instructions. The compounds were incubated with the kinase reaction mixture for 1.5 hrs before measurement. The data are means from two independent experiments and the variations are below 20%.

The target of assay [9] is CSF1R (Homo sapiens, UniProt P07333). Nature of the assay: Z'-Lyte kinase panel, CSF1R. In kind it is biochemical. The following applies: 1.5 hrs incubation. On the procedure:
as §3

In assay [10] the target is EGFR^L858R/T790M (Homo sapiens, UniProt P00533, L858R/T790M). Kind of assay: Compound washout assay on H1975 cells (Western blot). Format: cell-based. The note with it: 100 nmol/L for 4 h, then washout, 24 h. How it is done:
(§4) Cells were treated with various concentrations of compound for designed time. Then, cells were lysed using 1 × SDS sample lysis buffer (CST recommended) with protease and phosphatase inhibitors. Cell lysates were loaded and electrophoresed onto 8–12% SDS‐PAGE gel, and then, separated proteins were transferred to a PVDF film. The film was blocked with 5% fat‐free milk in TBS solution containing 0.5% Tween‐20 for 4 h at room temperature and then incubated with corresponding primary antibody (1:1000–1:200) overnight at 4°C. After washing with TBST, HRP‐conjugated secondary antibody was incubated for 2 h. And the protein signals were visualized by ECL Western Blotting Detection Kit (Thermo Scientific, Waltham, MA) and detected with Amersham Imager 600 system (GE, America).
Cells were treated with or without compound YL143 for 4 h at indicated concentration, respectively. Cells were harvested for Western blot analysis. […] NCI‐H1975 cells were treated with or without compound YL143(100 nmol/L) for 4 h, and then the medium with compound was removed and fresh medium was added. At the indicated time points, cells were harvest and proteins were extracted and subjected to Western blot analysis.
A general note: A western blot detects proteins with antibodies after separation by electrophoresis.

Assay [11] relates to CDK2, CDK4, cyclin D2, cyclin E, caspase-3, caspase-9 in H1975 cells. Kind of assay: Western blot of cell cycle and apoptosis proteins in H1975 cells. The following applies: 3 to 300 nmol/L, 48 h. Format: cell-based, human. How it is done:
as §4
Figure 3 YL143 induces G0/G1 cell cycle arrest and apoptosis in H1975 cells. (A) YL143 induces G0/G1 cell cycle arrest in H1975 cells H1975 cells were treated with 3, 30 or 300 nmol/L for 48 h before DNA labeling by propidium iodide and cell cycle analysis by flow cytometry. (B) YL143 induces apoptosis in H1975 cells. H1975 cells were treated with 3, 30 or 300 nmol/L for 48 h before DNA labeling by Annexin V and 7‐AAD and cell apoptosis analysis by flow cytometry. (C) The effect of YL143 on the expression of CDK4, Cyclin D2, CDK2, Cyclin E, Caspase‐9 and Caspase‐3 was tested by western blotting. […]

Chain of CSF1R (P07333 20-972, species assumed): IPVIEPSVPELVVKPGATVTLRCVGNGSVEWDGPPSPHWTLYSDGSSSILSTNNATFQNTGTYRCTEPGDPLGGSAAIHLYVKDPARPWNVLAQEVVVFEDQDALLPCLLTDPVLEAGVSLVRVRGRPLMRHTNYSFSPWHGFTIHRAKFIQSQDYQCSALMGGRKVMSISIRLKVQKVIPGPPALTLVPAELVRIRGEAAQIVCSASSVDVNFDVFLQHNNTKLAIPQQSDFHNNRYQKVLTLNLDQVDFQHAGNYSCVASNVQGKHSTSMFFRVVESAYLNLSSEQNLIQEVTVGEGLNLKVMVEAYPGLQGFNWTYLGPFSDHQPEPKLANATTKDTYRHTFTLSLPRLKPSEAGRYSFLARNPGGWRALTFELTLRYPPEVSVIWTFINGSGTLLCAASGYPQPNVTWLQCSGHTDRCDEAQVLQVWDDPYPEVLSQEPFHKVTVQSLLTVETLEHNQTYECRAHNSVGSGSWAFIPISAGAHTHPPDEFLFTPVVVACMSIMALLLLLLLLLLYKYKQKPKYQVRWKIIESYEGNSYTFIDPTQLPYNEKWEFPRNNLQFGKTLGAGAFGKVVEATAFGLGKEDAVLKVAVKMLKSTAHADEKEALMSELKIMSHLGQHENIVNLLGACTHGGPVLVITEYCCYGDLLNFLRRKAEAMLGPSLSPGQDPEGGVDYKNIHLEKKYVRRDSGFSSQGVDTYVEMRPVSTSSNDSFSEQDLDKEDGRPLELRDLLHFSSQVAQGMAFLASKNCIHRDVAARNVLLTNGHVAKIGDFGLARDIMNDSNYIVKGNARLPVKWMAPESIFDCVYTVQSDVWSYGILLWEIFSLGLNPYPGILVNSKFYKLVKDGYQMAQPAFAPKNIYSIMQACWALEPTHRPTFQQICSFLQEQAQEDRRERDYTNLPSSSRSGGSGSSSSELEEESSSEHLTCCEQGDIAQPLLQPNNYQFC
Chain of PDGFRB (P09619 33-1106, species assumed): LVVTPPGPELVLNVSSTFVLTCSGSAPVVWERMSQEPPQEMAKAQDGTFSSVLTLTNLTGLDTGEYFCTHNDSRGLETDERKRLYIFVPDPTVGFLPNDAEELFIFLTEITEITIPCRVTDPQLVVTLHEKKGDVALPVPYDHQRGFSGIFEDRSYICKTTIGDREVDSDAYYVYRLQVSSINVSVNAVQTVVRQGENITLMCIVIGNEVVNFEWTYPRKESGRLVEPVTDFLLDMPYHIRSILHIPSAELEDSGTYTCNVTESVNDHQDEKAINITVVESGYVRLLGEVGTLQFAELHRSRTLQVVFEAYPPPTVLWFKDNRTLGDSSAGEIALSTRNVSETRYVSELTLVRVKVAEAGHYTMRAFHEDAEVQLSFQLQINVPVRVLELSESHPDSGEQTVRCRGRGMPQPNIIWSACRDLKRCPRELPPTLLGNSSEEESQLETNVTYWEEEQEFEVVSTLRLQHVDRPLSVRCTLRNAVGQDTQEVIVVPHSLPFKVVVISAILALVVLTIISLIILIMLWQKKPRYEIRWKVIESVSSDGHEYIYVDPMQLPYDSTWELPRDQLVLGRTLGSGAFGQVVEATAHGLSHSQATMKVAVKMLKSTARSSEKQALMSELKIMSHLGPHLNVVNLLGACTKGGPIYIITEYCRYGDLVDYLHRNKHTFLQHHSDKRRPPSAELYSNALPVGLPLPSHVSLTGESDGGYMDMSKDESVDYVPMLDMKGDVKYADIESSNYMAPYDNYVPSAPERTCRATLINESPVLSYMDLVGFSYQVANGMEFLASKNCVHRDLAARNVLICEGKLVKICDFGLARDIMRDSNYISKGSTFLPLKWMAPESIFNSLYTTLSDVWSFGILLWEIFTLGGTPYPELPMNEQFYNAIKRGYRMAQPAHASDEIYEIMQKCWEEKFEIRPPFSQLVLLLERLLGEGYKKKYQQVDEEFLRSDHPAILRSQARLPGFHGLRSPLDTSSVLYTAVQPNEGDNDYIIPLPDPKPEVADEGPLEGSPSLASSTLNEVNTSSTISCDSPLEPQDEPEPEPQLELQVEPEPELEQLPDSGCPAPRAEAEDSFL

On to `C=CC(=O)Nc1cc(C)cc(-n2c(=O)cc(C)c3cnc(Nc4ccc(N5CCN(C)CC5)cc4OC)nc32)c1` [YL143, N‐(3‐(2‐((2‐Methoxy‐4‐(4‐methylpiperazin‐1‐yl)phenyl)amino)‐5‐methyl‐7‐oxopyrido [2,3‐d]pyrimidin‐8(7H)‐yl)‐5‐methylphenyl)acrylamide], for which the IC50 in [1] is 49.1 ± 4.2 nM; in [2], 7.8 ± 1.1 nM; in assay [3], > 1000 nM; in assay [4] it was 21.1 ± 9.9 nM; in [5], > 1000 nM; in assay [6], > 1000 nM. In addition, the IC50 in [7], in assay [8] and in [9] was > 10000 nM throughout. Further, the “EGFR^L858R/T790M phosphorylation recovery after withdrawal” value in [10] is listed as “no EGFR^L858R/T790M phosphorylation recovery was observed”. In addition, in [11], the “protein levels of CDK2, CDK4, cyclin D2, cyclin E” value is reported as “dose‐dependently decreased”.
